Experimental data published in PMC4509514, “Saccharomyces cerevisiae Ski7 Is a GTP-Binding Protein Adopting the Characteristic Conformation of Active Translational GTPases” (Structure(London, England:1993), 2015).

Biological target: T1, Ski7C (Saccharomyces cerevisiae, UniProt Q08491)
T1 construct: gene SKI7; C-terminal GTPase-like region, residues 254-747; N-terminal thioredoxin tag cut with PreScission; expressed in E. coli BL21; one molecule per asymmetric unit (SeMet form for phasing)
T1 sequence (Q08491 254-747): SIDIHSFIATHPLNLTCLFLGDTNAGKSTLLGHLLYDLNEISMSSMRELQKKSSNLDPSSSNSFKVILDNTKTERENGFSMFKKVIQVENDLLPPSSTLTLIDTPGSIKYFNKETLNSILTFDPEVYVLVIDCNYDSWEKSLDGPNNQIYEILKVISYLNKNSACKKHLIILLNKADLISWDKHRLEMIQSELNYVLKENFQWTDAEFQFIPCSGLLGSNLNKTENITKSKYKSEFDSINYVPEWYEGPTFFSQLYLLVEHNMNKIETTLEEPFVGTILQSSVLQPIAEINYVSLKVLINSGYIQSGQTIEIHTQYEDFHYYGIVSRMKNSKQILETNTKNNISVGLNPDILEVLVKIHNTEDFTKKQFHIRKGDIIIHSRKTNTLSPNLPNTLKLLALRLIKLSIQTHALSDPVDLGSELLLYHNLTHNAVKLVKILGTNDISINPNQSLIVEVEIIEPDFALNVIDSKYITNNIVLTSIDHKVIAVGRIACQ
Test: thermal shift (Thermofluor)
Format: binding
Settings: nucleotide analog added during alkaline phosphatase treatment; nucleotide-free protein as reference

SMILES	Tm [°C]
Nc1nc2c(ncn2[C@@H]2O[C@H](COP(=O)(O)CP(=O)(O)O)[C@@H](O)[C@H]2O)c(=O)[nH]1 [GMPCP]	44.0
Nc1nc2c(ncn2[C@@H]2O[C@H](COP(=O)(O)OP(=O)(O)NP(=O)(O)O)[C@@H](O)[C@H]2O)c(=O)[nH]1 [GMPPNP]	47.6
